The text below walks through data of patent US20250333530A1 (Hoffmann-La Roche Inc., priority 2024, published 2025).

“Also recorded” adds a separate entry of the source.

The subject of data set [1] is serum cytokines. Particulars: day 10.
Procedure: Cytokine measurement was carried out with the Luminex™ FLEXMAP 3D™ system using Bio-Plex Pro Human Cytokine Assay according to the manufacturer's instruction.
For another data set, the system named is OCI-Ly18 tumor. Description: Dexamethasone scheduling with glofitamab, gemcitabine and oxaliplatin: tumor growth. It counts as in vivo, humanized BRGS-CD47 mice. How it is done: Human OCI-Ly18 (Diffuse Large B-Cell Lymphoma; DLBCL) cells were originally obtained from ATCC and subsequently expanded and deposited in the Roche Glycart internal cell bank. Cells were cultured in RPMI medium containing 10% fetal calf serum (FCS) and 1× GLUTAMAX®. The cells were maintained at 37° C. in a water-saturated atmosphere with 5% CO2. A 50 μL cell suspension (5×10^6 OCI-Ly18 cells) mixed with 50 μL Matrigel was injected subcutaneously into the flank of anesthetized mice using a 22G to 30G needle. […] Health monitoring was performed regularly. At the appropriate time, mice were injected subcutaneously with tumor cells as described and treated with the compounds or histidine buffer (Vehicle; Group A) when tumor size reached approximately 200 mm^3 (Day 7). […] Gemcitabine and oxaliplatin were injected intraperitoneally (i.p.), glofitamab intravenously (i.v.), and dexamethasone was administered via oral gavage. Groups A-D received no dexamethasone: • Group A: vehicle (control group). • Group B: glofitamab monotherapy • Group C: gemcitabine and oxaliplatin. • Group D: glofitamab, gemcitabine and oxaliplatin. […] [table] All mice were injected with the appropriate solutions. […] Subsequent combination treatments were carried out concomitantly. To obtain the proper amount of compounds per injection volume, the stock solutions (Table 20) were diluted with histidine buffer when necessary. Tumor growth was measured three times weekly using a caliper and tumor volume was calculated as followed: The study was terminated at day 60 after a total of 7 cycles of treatment.

The test system of data set [2] is serum cytokines. Description: Dexamethasone scheduling with glofitamab: serum cytokines by multiplex assay. It counts as in vivo, humanized BRGS-CD47 mice. Particulars: for Serum cytokine levels 4 hours after the first glofitamab injection: glofitamab 0.15 mg/kg i.v., dexamethasone co-administered in Groups C-G (2-6 mg/kg orally). How it is done:
Group B animals (n=14) were injected intravenously with glofitamab only (0.15 mg/kg at first and 0.5 mg/kg at subsequent injections in 200 μL of histidine buffer) once weekly for 5 weeks.
Serum was prepared by centrifugation.
Serum was collected and stored at −20° C. Serum samples were diluted 1:10 and used for the analysis of different cytokines/chemokines using the Bio-Plex Pro™ Human Chemokine Panel, 40-Plex system (Catalog No. 171AK99MR2; Bio-Rad; Hercules, CA), following the manufacturer's instructions.

The conditions of data set [3]: in vivo.

As to `C[C@@H]1C[C@H]2[C@@H]3CCC4=CC(=O)C=C[C@]4(C)[C@@]3(F)[C@@H](O)C[C@]2(C)[C@@]1(O)C(=O)COP(=O)(O)O` [dexamethasone, Dexamethasone sodium phosphate], in the data set with serum cytokines [1] (Groups F and H), the “Serum IFN-γ and IL-2” value was “did not show as strong a reduction”; the “Serum MCP-1 and IL-8” value is reported as “statistically reduced”. The “CRS-related serum cytokines, such as IL-6, vs glofitamab monotherapy group” value in the data set on serum cytokines [1] (additional dexamethasone injection 24 hours post glofitamab (Groups F and H)) was “significant reduction”. Further, the “Anti-tumor effect of glofitamab + gemcitabine + oxaliplatin with added dexamethasone” value in the data set with OCI-Ly18 tumor (dexamethasone 4 mg/kg p.o., Groups E-H, correlated with frequency of dexamethasone administration) was “improvement in anti-tumor effects”. Also, the “Anti-tumor effect vs CD20-TCB and chemotherapy without dexamethasone” value in the data set with OCI-Ly18 tumor (dexamethasone 4 mg/kg p.o., Groups G and H (most frequent injections), study termination) was “statistically significant better anti-tumor effects”. Moreover, the “Serum cytokine levels 28 hours after the first glofitamab injection vs glofitamab only” value in the data set with serum cytokines [2] (1 or 2 dexamethasone doses prior to glofitamab only (Groups C and E)) is “No difference in cytokine levels”. In the data set on serum cytokines [2] (24-hour pre-glofitamab administration), the “IL-6 and IL-10 levels with additional dexamethasone premedication dose” value is “reduced IL-6, and to some extent IL-10 levels, at the early time point, with no mitigation capacity at the later time point”. Further, the “IL-6 with dexamethasone post treatment dose” value with serum cytokines [2] (24 hours post-glofitamab administration, 28 hours post-glofitamab time point) was “mitigated IL-6 at the later time point”. In the data set with serum cytokines [2] (Groups D-G, 4 hours after first glofitamab injection), the “Levels of some cytokines (e.g., GM-CSF), second dexamethasone dose prior to glofitamab vs only 1 dose” value is listed as “further reduced the levels of some cytokines”. Also, the “Serum cytokine levels 28 hours after the first glofitamab injection” value with serum cytokines [2] (dexamethasone prior to and after glofitamab injection (Groups D and F), mainly IL-6, MIP1β, MIP1α, TNFα reduced) is recorded as “effectively mitigated cytokine levels for an extended duration; also recorded: very low cytokine levels”. The “Serum cytokine levels 4 hours after the first glofitamab injection” value in the data set on serum cytokines [2] is “significantly reduced cytokine levels”.

For the molecule “glofitamab: anti-CD20/anti-CD3 bispecific antibody, 2:1 configuration; CAS 2229047-91-8”, in the data set with OCI-Ly18 tumor (7 weekly cycles, glofitamab 0.15/0.5 mg/kg i.v., gemcitabine/oxaliplatin 50/3 mg/kg i.p., no dexamethasone (Groups B-D)), the “Tumor growth (tumor volume) up to day 60” value is “initially elicited a robust inhibition of tumor growth, which was subsequently followed by tumor recurrence in all treated mice”. The “Serum cytokine levels after the second glofitamab injection” value in the data set with serum cytokines [2] (0.5 mg/kg, much lower than after the first cycle) is reported as “did not show an increase in cytokine levels”. Further, the “Serum cytokine levels 4 hours after the first glofitamab injection” value in the data set on serum cytokines [2] was “strong cytokine release”. Also, in the data set on serum cytokines [2] (glofitamab monotherapy (Group B)), the “Serum cytokine levels 28 hours after the first glofitamab injection” value was “higher cytokine levels”. Further, in data set [3], the “Pharmacokinetics on co-administration with gemcitabine or oxaliplatin” value is reported as “not affected”.
